The nature of test [1]: Inhibitory activity against LPS-stimulated 1L-1beta release by cultured human monocytes. It counts as functional.
The test system of a further test is Rattus norvegicus. As to the kind of experiment: Compound was tested for reduction of streptococcal cell wall(SCW) in rats at a dose of 0.67 mg/kg. It is filed as functional.
The nature of test [2]: Inhibitory activity against LPS-stimulated IL1-beta release by cultured human monocytes at a concentration 1000 nM. It counts as functional.
The target in another test is T1, Caspase-1 (Homo sapiens, UniProt P29466).
T1 sequence (P29466 whole entry): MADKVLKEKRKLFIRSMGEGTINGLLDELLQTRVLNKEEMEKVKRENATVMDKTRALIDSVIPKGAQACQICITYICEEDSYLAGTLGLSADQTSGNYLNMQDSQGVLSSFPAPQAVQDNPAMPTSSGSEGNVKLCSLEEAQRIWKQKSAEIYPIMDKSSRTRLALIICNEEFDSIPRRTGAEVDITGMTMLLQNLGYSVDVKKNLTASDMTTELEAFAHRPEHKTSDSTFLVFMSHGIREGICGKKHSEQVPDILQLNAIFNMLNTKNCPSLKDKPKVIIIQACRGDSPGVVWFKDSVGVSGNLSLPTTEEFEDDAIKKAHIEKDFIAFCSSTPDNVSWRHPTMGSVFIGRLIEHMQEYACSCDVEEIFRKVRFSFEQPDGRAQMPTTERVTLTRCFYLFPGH
As to the kind of experiment: Inhibitory activity against IL-1 beta converting enzyme was evaluated.

Structures are written as SMILES.

One may read the IC50 as the midpoint of a concentration-inhibition curve. A higher IC50 goes with a need for much substance. A word on the inhibition: it is the change of the read-out against control, counted positive when it falls.

As to `COC(=O)[C@]1(C)CC[C@]2(C)CC[C@]3(C)C4=CCc5c(cc(OC(C)=O)c(OC(C)=O)c5C)[C@]4(C)CC[C@@]3(C)[C@@H]2C1` [PRISTIMEROL DIACETATE], the midpoint of inhibition in test [1], the IC50, lay at 79 nM.

`COC(=O)[C@]1(C)CC[C@]2(C)CC[C@]3(C)C4=CCc5c(cc(O)c(O)c5C)[C@]4(C)CC[C@@]3(C)[C@@H]2C1` [PRISTIMEROL] gave an IC50 in test [1] of 260 nM.

Compound `COC(=O)[C@]1(C)CC[C@]2(C)CC[C@]3(C)C4=CC=C5C(=CC(=O)C(O)=C5C)[C@]4(C)CC[C@@]3(C)[C@@H]2C1` [PRISTIMERIN] gave an IC50 in test [1] of 56 nM.

For the compound `COc1ccc2c(c1)c(CC(=O)O)c(C)n2C(=O)c1ccc(Cl)cc1` [INDOMETHACIN], in the test on Rattus norvegicus, the SCW reduction is on record as 70%.

For the compound `COC(=O)[C@]1(C)CC[C@]2(C)CC[C@]3(C)C4=CCc5c(cc(OC)c(OC)c5C)[C@]4(C)CC[C@@]3(C)[C@@H]2C1`, the inhibition at 1 µM in test [2] was 8%.

In the case of `CC1=C(O)C(=O)C=C2C1=CC=C1[C@@]2(C)CC[C@@]2(C)[C@@H]3C[C@@H](C)C(=O)C[C@]3(C)CC[C@]12C` [TINGENONE], in test [1], it took 58 nM to reach half-maximal inhibition (IC50).

For `CC1=C(O)C(=O)C=C2C1=CC=C1[C@@]2(C)CC[C@@]2(C)[C@@H]3C[C@](C)(C(=O)O)CC[C@]3(C)CC[C@]12C` [CELASTROL], the IC50 in test [1] stood at 40 nM.

On to `O=C1C=CC(=O)C=C1` [BENZOQUINONE], for which half-maximal inhibition against Caspase-1 (IC50) was put at 3000 nM.

For the origin of these results see ChEMBL document CHEMBL1130892, “Novel cytokine release inhibitors. Part I: Triterpenes” (Bioorg Med Chem Lett, 1998).
